Assay results reported in ChEMBL document CHEMBL4265985, “Discovery of a potent, low-absorbable sodium-dependent glucose cotransporter 1 (SGLT1) inhibitor (TP0438836) for the treatment of type 2 diabetes” (Bioorg Med Chem Lett, 2018).
pIC50: −log10 of the molar value. The source made the active and inactive calls. The rule behind the calls is not given here.

What was measured:
[1] = target: T1, Sodium/glucose cotransporter 1 (Homo sapiens, UniProt P13866); assay: Inhibition of human SGLT1 expressed in CHOK1 cells assessed as reduction in Na-dependent [14C]-methyl-alpha-D-glucopyranoside uptake after 30 mins by microbeta counting method; assay type: cell-based
T1 sequence (P13866 whole entry): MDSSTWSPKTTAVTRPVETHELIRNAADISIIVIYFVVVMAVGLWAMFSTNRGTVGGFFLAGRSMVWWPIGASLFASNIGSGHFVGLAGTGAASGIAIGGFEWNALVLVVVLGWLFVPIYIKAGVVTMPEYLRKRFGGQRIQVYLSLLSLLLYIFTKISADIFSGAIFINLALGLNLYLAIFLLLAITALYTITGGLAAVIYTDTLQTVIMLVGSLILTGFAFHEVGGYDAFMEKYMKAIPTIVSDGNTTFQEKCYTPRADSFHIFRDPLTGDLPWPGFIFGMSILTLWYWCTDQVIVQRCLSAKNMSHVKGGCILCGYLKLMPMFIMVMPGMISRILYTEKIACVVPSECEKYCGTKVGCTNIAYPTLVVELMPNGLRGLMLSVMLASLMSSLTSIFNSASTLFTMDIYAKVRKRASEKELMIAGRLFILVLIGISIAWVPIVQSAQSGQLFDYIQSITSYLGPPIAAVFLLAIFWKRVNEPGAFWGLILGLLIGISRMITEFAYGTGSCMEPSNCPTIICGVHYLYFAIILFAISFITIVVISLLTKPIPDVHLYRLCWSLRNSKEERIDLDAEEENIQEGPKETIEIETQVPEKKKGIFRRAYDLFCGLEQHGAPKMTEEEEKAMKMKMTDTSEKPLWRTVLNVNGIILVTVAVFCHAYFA

[2] = target: T2, Sodium/glucose cotransporter 2 (Homo sapiens, UniProt P31639); assay: Inhibition of human SGLT2 expressed in CHOK1 cells assessed as reduction in Na-dependent [14C]-methyl-alpha-D-glucopyranoside uptake after 1 hr by microbeta counting method; assay type: cell-based
T2 sequence (P31639 whole entry): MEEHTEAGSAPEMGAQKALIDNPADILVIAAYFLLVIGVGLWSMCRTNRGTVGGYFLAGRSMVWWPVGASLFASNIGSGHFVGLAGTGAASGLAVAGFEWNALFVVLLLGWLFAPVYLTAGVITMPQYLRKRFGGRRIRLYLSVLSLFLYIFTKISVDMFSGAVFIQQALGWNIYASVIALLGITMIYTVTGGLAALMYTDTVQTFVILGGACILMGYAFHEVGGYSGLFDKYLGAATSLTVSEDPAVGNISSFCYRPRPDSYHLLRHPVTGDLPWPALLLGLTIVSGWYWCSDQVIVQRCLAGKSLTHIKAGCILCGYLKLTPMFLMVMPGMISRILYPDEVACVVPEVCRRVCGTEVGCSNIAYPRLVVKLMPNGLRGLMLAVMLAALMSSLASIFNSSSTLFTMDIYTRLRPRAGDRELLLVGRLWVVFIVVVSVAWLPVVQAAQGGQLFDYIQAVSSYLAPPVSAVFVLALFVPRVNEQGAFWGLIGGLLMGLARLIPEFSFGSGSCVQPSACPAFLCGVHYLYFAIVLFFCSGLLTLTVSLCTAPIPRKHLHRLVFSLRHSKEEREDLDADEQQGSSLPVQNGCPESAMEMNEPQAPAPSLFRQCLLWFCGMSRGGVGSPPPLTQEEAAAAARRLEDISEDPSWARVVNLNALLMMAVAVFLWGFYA

[3] = Total clearance in Sprague-Dawley rat at 2 mg/kg, iv administered as single dose by LC-MS analysis; assay type: ADME, organism-based; conditions: in vivo
[4] = Volume of distribution at steady state in Sprague-Dawley rat at 2 mg/kg, iv administered as single dose by LC-MS analysis; assay type: ADME, organism-based; conditions: in vivo, read-out: Vdss
[5] = Terminal half life in Sprague-Dawley rat at 2 mg/kg, iv administered as single dose by LC-MS analysis; assay type: ADME, organism-based; conditions: in vivo, read-out: beta t1/2 (converted)
[6] = Cmax in Sprague-Dawley rat at 1 mg/kg, po administered as single dose by LC-MS analysis; assay type: ADME, organism-based; design: dose 1 mg/kg, route oral; conditions: in vivo
[7] = Tmax in Sprague-Dawley rat at 1 mg/kg, po administered as single dose by LC-MS analysis; assay type: ADME, organism-based; conditions: in vivo
[8] = Oral bioavailability in Sprague-Dawley rat at 1 mg/kg administered as single dose by LC-MS analysis; assay type: ADME, organism-based; conditions: in vivo
[9] = Permeability of the compound at 50 uM after 24 hrs at pH 7.4 by PAMPA; assay type: ADME; conditions: read-out: permeability
Rattus norvegicus [10] = assay: Hypoglycemic effect in Sprague-Dawley rat assessed as reduction in blood glucose AUC (0 to 2 hrs) at 0.1 mg/kg, po pretreated followed by glucose challenge by OGTT relative to control; assay type: functional; design: scale not given: the % may be the effect or the level left
Rattus norvegicus [11] = assay: Hypoglycemic effect in Sprague-Dawley rat assessed as reduction in blood glucose AUC (0 to 2 hrs) at 0.3 mg/kg, po pretreated followed by glucose challenge by OGTT relative to control; assay type: functional; design: scale not given: the % may be the effect or the level left
Rattus norvegicus [12] = assay: Hypoglycemic effect in Sprague-Dawley rat assessed as reduction in blood glucose AUC (0 to 2 hrs) at 1 mg/kg, po pretreated followed by glucose challenge by OGTT relative to control; assay type: functional; design: scale not given: the % may be the effect or the level left
Rattus norvegicus [13] = assay: Hypoglycemic effect in Sprague-Dawley rat assessed as reduction in blood glucose AUC (0 to 2 hrs) pretreated orally followed by glucose challenge by OGTT; assay type: functional, organism-based
Rattus norvegicus [14] = assay: In vivo inhibition of SGLT2 Sprague-Dawley rat assessed as increase in urinary glucose excretion at 0.1 to 0.3 mg/kg, po bid for 4 days followed by glucose challenge on day 5; assay type: functional, organism-based

| SMILES | pIC50 [1] | pIC50 [2] | other results |
| --- | --- | --- | --- |
| Cc1cc(O)c([C@@H]2O[C@H](CO)[C@@H](O)[C@H](O)[C@H]2O)cc1Cc1ccc(CCCC(=O)NC(C)(C)C(N)=O)cc1 | 7.29 | 8.15 |  |
| Cc1cc(O)c([C@@H]2O[C@H](CO)[C@@H](O)[C@H](O)[C@H]2O)cc1Cc1ccc(CCNC(=O)NC(C)(C)CO)cc1 |  | 8.40 |  |
| Cc1ccc(Cc2cc([C@@H]3S[C@H](CO)[C@@H](O)[C@H](O)[C@H]3O)c(O)cc2C)cc1 | 7.60 | 8.70 |  |
| Cc1cc(O)c([C@@H]2S[C@H](CO)[C@@H](O)[C@H](O)[C@H]2O)cc1Cc1ccc(CCCC(=O)NC(CO)(CO)CO)cc1 | 7.46 | 8.05 |  |
| Cc1cc(O)c([C@@H]2O[C@H](CO)[C@@H](O)[C@H](O)[C@H]2O)cc1Cc1ccc(CCCNC(=O)NC(CO)(CO)CO)cc1 |  | 8.15 |  |
| Cc1cc(O)c([C@@H]2O[C@H](CO)[C@@H](O)[C@H](O)[C@H]2O)cc1Cc1ccc(CCNC(=O)NC(CO)(CO)CO)cc1 | 7.55 | 8.15 | clearance [3]: 18 mL/min/kg; Vd [4]: 0.439 L/kg; half-life [5]: 21.7 min; Cmax [6]: 1.46 ng/mL; Tmax [7]: 15 min; bioavailability [8]: 0.05%; Papp at 24 h, 50 µM [9]: 0.3 ×10⁻⁶ cm/s; Activity (Rattus norvegicus [10]): 31.5%; Activity (Rattus norvegicus [11]): 58.5%; Activity (Rattus norvegicus [12]): 62.2%; Activity (Rattus norvegicus [13]): Dose-dependent effect; inhibition (Rattus norvegicus [14]): inactive |
| CCc1ccc(Cc2cc([C@@H]3S[C@H](CO)[C@@H](O)[C@H](O)[C@H]3O)c(O)cc2C)cc1 |  | 8.70 |  |
| Cc1cc(O)c([C@@H]2O[C@H](CO)[C@@H](O)[C@H](O)[C@H]2O)cc1Cc1ccc(CCCNC(=O)N2CCN(C)CC2)cc1 | 6.12 | 8.30 |  |
| Cc1cc(O)c([C@@H]2O[C@H](CO)[C@@H](O)[C@H](O)[C@H]2O)cc1Cc1ccc(CCCC(=O)NC(C)(CO)CO)cc1 | 7.49 |  |  |
| Cc1cc(O)c([C@@H]2O[C@H](CO)[C@@H](O)[C@H](O)[C@H]2O)cc1Cc1ccc(CCCC(=O)NC(CO)(CO)CO)cc1 | 7.46 |  |  |
| Cc1cc(O)c([C@@H]2S[C@H](CO)[C@@H](O)[C@H](O)[C@H]2O)cc1Cc1ccc(OC(C)C)cc1 | 6.38 | 8.52 |  |
| Cc1cc(O)c([C@@H]2S[C@H](CO)[C@@H](O)[C@H](O)[C@H]2O)cc1Cc1ccc(CCCC(=O)NC(C)(CO)CO)cc1 | 7.66 | 8.30 |  |
| COc1ccc(Cc2cc([C@@H]3S[C@H](CO)[C@@H](O)[C@H](O)[C@H]3O)c(O)cc2C)cc1 | 7.19 |  |  |
| Cc1cc(O)c([C@@H]2S[C@H](CO)[C@@H](O)[C@H](O)[C@H]2O)cc1Cc1ccc(CCCC(=O)NC(C)(C)C(N)=O)cc1 | 7.33 | 8.40 |  |
| Cc1cc(O)c([C@@H]2O[C@H](CO)[C@@H](O)[C@H](O)[C@H]2O)cc1Cc1ccc(CCCNC(=O)NC(C)(C)CO)cc1 |  | 8.30 |  |
| CCOc1ccc(Cc2cc([C@@H]3S[C@H](CO)[C@@H](O)[C@H](O)[C@H]3O)c(O)cc2C)cc1 | 6.79 | 8.52 |  |
